According to the supplement of paper PMC13380429:
± gives the standard deviation of the averaged measurements.

Tests used:
HepG2 [1] = assay: relative viability EC50 (midpoint between 100% and the lowest measured viability); higher = less toxic; details: 72 h
U2OS [2] = assay: as above; details: 72 h
HepG2 [3] = assay: cell viability relative to DMSO; higher = less toxic; details: 72 h
Calu-3 [4] = assay: as above; details: 72 h
U2OS [5] = assay: as above; details: 72 h
Caco-2 [6] = assay: as above; details: 72 h
Vero E6 [7] = assay: as above; details: 72 h
A549-ACE2 = assay: drug-induced phospholipidosis relative to tamoxifen; higher = more phospholipidosis
[8] = system: A549-ACE2 infected with SARS-CoV-2; assay: SARS-CoV-2 infection rate relative to DMSO; higher = more infection; details: 24 h
[9] = system: A549-ACE2 infected with SARS-CoV-2; assay: cell count relative to DMSO; higher = less toxic; details: 24 h
HepG2 [10] = assay: drug sensitivity score (DSS) for viability; higher = more toxic; extreme values may be limits of the assay; details: 72 h
Calu-3 [11] = assay: as above; details: 72 h
U2OS [12] = assay: as above; details: 72 h
Caco-2 [13] = assay: as above; details: 72 h
Vero E6 [14] = assay: as above; details: 72 h
[15] = system: A549-ACE2 infected with SARS-CoV-2; assay: morphology score (similarity to uninfected cells); higher = more like uninfected cells; details: 24 h
Calu-3 [16] = assay: relative viability EC50 (midpoint between 100% and the lowest measured viability); higher = less toxic; details: 72 h
Caco-2 [17] = assay: as above; details: 72 h
Vero E6 [18] = assay: as above; details: 72 h

Cn1cc(-c2ccc3c(c2)CCN3C(=O)Cc2cccc(C(F)(F)F)c2)c2c(N)ncnc21
Details | drug sensitivity score | relative viability EC50 [µM]
Caco-2 [13] | 4.7 | –
Calu-3 [11] | 2.4 | –
HepG2 [1] | – | 3.28
HepG2 [10] | 2.6 | –
U2OS [2] | – | > 10
U2OS [12] | 1.5 | –
Vero E6 [14] | 1.2 | –

Details | SARS-CoV-2 infection rate, [8] [%] | cell count, [9] [%] | cell viability, Caco-2 [6] [%] | cell viability, Calu-3 [4] [%] | cell viability, HepG2 [3] [%] | cell viability, U2OS [5] [%] | cell viability, Vero E6 [7] [%] | morphology score, [15]
1 nM | – | – | 100 | 106 | 87.4 | 103 | 95.3 | –
10 nM | – | – | 86.6 | 94 | 98.3 | 97.4 | 94 | –
100 nM | – | – | 66.9 | 96 | 84 | 102 | 96.6 | –
0.1 µM | 102 | 97 | – | – | – | – | – | 0.02
0.3 µM | 96 | 104 | – | – | – | – | – | 0.18
1000 nM | – | – | 103 | 92.5 | 101 | 95.2 | 107 | –
1 µM | 102 | 105 | – | – | – | – | – | 0.12
3 µM | 87 | 112 | – | – | – | – | – | 0.4
10000 nM | – | – | 61.6 | 68.9 | 48.6 | 77.3 | 67.1 | –

drug-induced phospholipidosis [%], A549-ACE2
Details | 0.3 µM | 0.833333 µM | 3.33333 µM | 6.66667 µM | 10 µM | 30 µM
24 h | 1.57 | 0.73 | 1.92 | 3.67 | 12.1 | 28.6
48 h | 3.63 | 1.52 | 3.02 | 3.48 | 8.65 | 18.6
72 h | 2.2 | 0.314 | 1.31 | 3.34 | 7.89 | 22.2

NCCc1c[nH]c2ccc(C(N)=O)cc12 [5-carboxamidotryptamine]
Details | drug sensitivity score | relative viability EC50 [µM]
Caco-2 [13] | 0 | –
Caco-2 [17] | – | > 10
Calu-3 [11] | 0 | –
Calu-3 [16] | – | > 10
HepG2 [1] | – | > 10
HepG2 [10] | 0 | –
U2OS [2] | – | > 10
U2OS [12] | 0 | –
Vero E6 [14] | 0 | –
Vero E6 [18] | – | > 10

Details | SARS-CoV-2 infection rate, [8] [%] | cell count, [9] [%] | cell viability, Caco-2 [6] [%] | cell viability, Calu-3 [4] [%] | cell viability, HepG2 [3] [%] | cell viability, U2OS [5] [%] | cell viability, Vero E6 [7] [%] | morphology score, [15]
1 nM | – | – | 97.8 | 93.2 | 105 | 101 | 98.8 | –
10 nM | – | – | 96.5 | 104 | 96.2 | 97.8 | 104 | –
100 nM | – | – | 102 | 96 | 95.2 | 99.1 | 103 | –
0.3 µM | 100 | 98 | – | – | – | – | – | -0.09
1000 nM | – | – | 102 | 104 | 102 | 98 | 97.4 | –
3 µM | 99 | 96 | – | – | – | – | – | -0.06
10000 nM | – | – | 98.7 | 102 | 98.9 | 99.5 | 97.2 | –
10 µM | 101 | 105 | – | – | – | – | – | -0.11
30 µM | 93 | 102 | – | – | – | – | – | 0.09

drug-induced phospholipidosis [%], A549-ACE2
Details | 0.3 µM | 0.833333 µM | 3.33333 µM | 6.66667 µM | 10 µM | 30 µM
24 h | 1.09 | -2.6 | -3.13 | -2 | -0.66 | 2.03
48 h | 2.16 | -0.39 | 0.18 | -1.08 | -0.13 | 2.67
72 h | 3.22 | -1.61 | -0.768 | -1.96 | 0.562 | 3.08

Fc1ccc([C@@H]2CCNC[C@H]2COc2ccc3c(c2)OCO3)cc1 [paroxetine]
Details | drug sensitivity score | relative viability EC50 [µM]
Caco-2 [13] | 0.6 | –
Caco-2 [17] | – | > 10
Calu-3 [11] | 0 | –
Calu-3 [16] | – | > 10
HepG2 [1] | – | > 10
HepG2 [10] | 0 | –
U2OS [2] | – | > 10
U2OS [12] | 0 | –
Vero E6 [14] | 0 | –
Vero E6 [18] | – | > 10

cell viability [%]
Details | Caco-2 [6] | Calu-3 [4] | HepG2 [3] | U2OS [5] | Vero E6 [7]
1 nM | 85.8 | 95.9 | 117 | 97.7 | 95.9
10 nM | 102 | 87.4 | 120 | 96.4 | 104
100 nM | 111 | 93.1 | 108 | 103 | 98.7
1000 nM | 98.6 | 85.1 | 83.7 | 98 | 101
10000 nM | 82.1 | 108 | 102 | 101 | 100

C[C@H]1COc2c(C3(N)CC3)c(F)cc3c(=O)c(C(=O)O)cn1c23 [pazufloxacin]
Details | drug sensitivity score | relative viability EC50 [µM]
Caco-2 [13] | 0 | –
Caco-2 [17] | – | > 10
Calu-3 [11] | 0 | –
Calu-3 [16] | – | > 10
HepG2 [1] | – | > 10
HepG2 [10] | 0 | –
U2OS [2] | – | > 10
U2OS [12] | 0 | –
Vero E6 [14] | 0 | –
Vero E6 [18] | – | > 10

cell viability [%]
Details | Caco-2 [6] | Calu-3 [4] | HepG2 [3] | U2OS [5] | Vero E6 [7]
1 nM | 103 | 96.9 | 88.8 | 103 | 93.7
10 nM | 93.5 | 98.7 | 107 | 103 | 103
100 nM | 90.3 | 90.6 | 101 | 100 | 103
1000 nM | 99.2 | 101 | 98.9 | 99.9 | 94.6
10000 nM | 102 | 89.3 | 99.4 | 97.3 | 99.2

CC(C)NCC(O)COc1cccc2[nH]ccc12 (configuration not stated) [pindolol]
Details | drug sensitivity score | relative viability EC50 [µM]
Caco-2 [13] | 0 | –
Caco-2 [17] | – | > 10
Calu-3 [11] | 0 | –
Calu-3 [16] | – | > 10
HepG2 [1] | – | > 10
HepG2 [10] | 0 | –
U2OS [2] | – | > 10
U2OS [12] | 0 | –
Vero E6 [14] | 0 | –
Vero E6 [18] | – | > 10

cell viability [%]
Details | Caco-2 [6] | Calu-3 [4] | HepG2 [3] | U2OS [5] | Vero E6 [7]
1 nM | 117 | 98.8 ± 1.1 | 111 ± 10 | 103 ± 5 | 99.2 ± 1.3
10 nM | 100 | 97 ± 6.8 | 90 ± 12 | 101 ± 2.3 | 95.8 ± 1.4
100 nM | 122 | 100.4 ± 0.28 | 105 ± 0.14 | 99.5 ± 3.3 | 96.1 ± 9.6
1000 nM | 101 | 103.8 ± 0.92 | 85.5 ± 29 | 102.5 ± 0.35 | 98.8 ± 2.1
10000 nM | 90.9 | 102 ± 15 | 103 ± 8.6 | 103 ± 0.14 | 95 ± 11
